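Dose response: 5 concentrations. Exposure: 48 h. Format: 96-well plates. Endpoint: linear interpolation; highest concentration if not reached. TGI: concentration producing complete growth inhibition.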
Legend:
Experiment in all cases: inhibition of tumour cell growth, NCI panel, 48 h
786-0 renal = tested on: 786-0 renal
A498 renal = tested on: A498 renal
A549 NSCLC = tested on: A549 NSCLC
ACHN renal = tested on: ACHN renal
BT-549 breast = tested on: BT-549 breast
CAKI-1 renal = tested on: CAKI-1 renal
DU-145 prostate = tested on: DU-145 prostate
EKVX NSCLC = tested on: EKVX NSCLC
HCC-2998 colon = tested on: HCC-2998 colon
HCT-116 colon = tested on: HCT-116 colon
HCT-15 colon = tested on: HCT-15 colon
HL-60(TB) leukemia = tested on: HL-60(TB) leukemia
HOP-62 NSCLC = tested on: HOP-62 NSCLC
HOP-92 NSCLC = tested on: HOP-92 NSCLC
HS 578T breast = tested on: HS 578T breast
HT29 colon = tested on: HT29 colon
IGROV1 ovarian = tested on: IGROV1 ovarian
K-562 leukemia = tested on: K-562 leukemia
KM12 colon = tested on: KM12 colon
LOX IMVI melanoma = tested on: LOX IMVI melanoma
M14 melanoma = tested on: M14 melanoma
MCF7 breast = tested on: MCF7 breast
MDA-MB-231 breast = tested on: MDA-MB-231 breast
MDA-MB-435 = tested on: MDA-MB-435
MDA-N = tested on: MDA-N
MOLT-4 leukemia = tested on: MOLT-4 leukemia
NCI-H226 lung = tested on: NCI-H226 lung
NCI-H23 lung = tested on: NCI-H23 lung
NCI-H460 lung = tested on: NCI-H460 lung
NCI-H522 lung = tested on: NCI-H522 lung
NCI/ADR-RES ovarian = tested on: NCI/ADR-RES ovarian
OVCAR-3 ovarian = tested on: OVCAR-3 ovarian
OVCAR-4 ovarian = tested on: OVCAR-4 ovarian
OVCAR-5 ovarian = tested on: OVCAR-5 ovarian
OVCAR-8 ovarian = tested on: OVCAR-8 ovarian
PC-3 prostate = tested on: PC-3 prostate
RPMI-8226 leukemia = tested on: RPMI-8226 leukemia
RXF 393 renal = tested on: RXF 393 renal
SF-268 CNS = tested on: SF-268 CNS
SF-295 CNS = tested on: SF-295 CNS
SF-539 CNS = tested on: SF-539 CNS
SK-MEL-2 melanoma = tested on: SK-MEL-2 melanoma
SK-MEL-28 melanoma = tested on: SK-MEL-28 melanoma
SK-MEL-5 melanoma = tested on: SK-MEL-5 melanoma
SN12C renal = tested on: SN12C renal
SNB-19 CNS = tested on: SNB-19 CNS
SNB-75 CNS = tested on: SNB-75 CNS
SR leukemia = tested on: SR leukemia
SW-620 colon = tested on: SW-620 colon
T-47D breast = tested on: T-47D breast
TK-10 renal = tested on: TK-10 renal
U251 CNS = tested on: U251 CNS
UACC-257 melanoma = tested on: UACC-257 melanoma
UO-31 renal = tested on: UO-31 renal

Measured: TGI

Cc1ccc(S(=O)(=O)C2=C(C(C)C)N=NC2(C)C)cc1
69.6 µM: HOP-92 NSCLC
53.8 µM: RPMI-8226 leukemia
> 100 µM: 786-0 renal | A498 renal | A549 NSCLC | ACHN renal | BT-549 breast | CAKI-1 renal | DU-145 prostate | EKVX NSCLC | HCC-2998 colon | HCT-116 colon | HCT-15 colon | HL-60(TB) leukemia | HOP-62 NSCLC | HS 578T breast | HT29 colon | IGROV1 ovarian | K-562 leukemia | KM12 colon | LOX IMVI melanoma | M14 melanoma | MCF7 breast | MDA-MB-231 breast | MDA-MB-435 | MDA-N | MOLT-4 leukemia | NCI-H226 lung | NCI-H23 lung | NCI-H460 lung | NCI-H522 lung | NCI/ADR-RES ovarian | OVCAR-3 ovarian | OVCAR-4 ovarian | OVCAR-5 ovarian | OVCAR-8 ovarian | PC-3 prostate | RXF 393 renal | SF-268 CNS | SF-295 CNS | SF-539 CNS | SK-MEL-2 melanoma | SK-MEL-28 melanoma | SK-MEL-5 melanoma | SN12C renal | SNB-19 CNS | SNB-75 CNS | SR leukemia | SW-620 colon | T-47D breast | TK-10 renal | U251 CNS | UACC-257 melanoma | UO-31 renal

From PubChem BioAssay (NCI)
